Source: patent US20100267561A1, “HERBICIDAL PYRIDAZINONE DERIVATIVES” (priority 2007, published 2010)

Legend:
Assay in all cases: Test B pre-/postemergence plant response
Format in all cases: in vivo
[1] = test system: Italian ryegrass (Lolium multiflorum); conditions: Preemergence
Summary of the method: (§1)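 Visual scoring from 0 (no effect) to 100 (complete control) against untreated controls was done 13 to 15 days after greenhouse treatment. Chemicals were formulated in a surfactant-containing non-phytotoxic solvent and applied to soil preemergence or to 1- to 4-leaf (2-18 cm) plants postemergence.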

[2] = test system: Russian thistle (Salsola iberica); conditions: Preemergence
Summary of the method: as §1

[3] = test system: catchweed bedstraw (Galium aparine); conditions: Preemergence
Summary of the method: as §1

[4] = test system: cocklebur (Xanthium strumarium); conditions: Preemergence; for Cocklebur plant response rating: 8 g ai/ha
Summary of the method: as §1

[5] = test system: common (oilseed) sunflower (Helianthus annuus); conditions: Preemergence
Summary of the method: as §1

[6] = test system: common ragweed (Ambrosia elation); conditions: Preemergence
Summary of the method: as §1

[7] = test system: downy bromegrass (Bromus tectorum); conditions: Preemergence; for Bromegrass, Downy plant response rating: 8 g ai/ha
Summary of the method: as §1

[8] = test system: goosegrass (Eleusine indica); conditions: Preemergence
Summary of the method: as §1

[9] = test system: large crabgrass (Digitaria sanguinalis); conditions: Preemergence
Summary of the method: as §1

[10] = test system: pigweed (Amaranthus retroflexus); conditions: Preemergence
Summary of the method: as §1

soybean (Glycine max) = conditions: Preemergence
Summary of the method: as §1

[11] = test system: surinam grass (Brachiaria decumbens); conditions: Preemergence; for Surinam Grass plant response rating: scale 0 to 100
Summary of the method: as §1

[12] = test system: woolly cupgrass (Eriochloa villosa); conditions: Preemergence
Summary of the method: as §1

[13] = 31 g ai/ha, scale 0 to 100 (0 no effect, 100 complete control)
[14] = 62 g ai/ha, 0 to 100 scale, 0 no effect, 100 complete control
[15] = 16 g ai/ha, scale 0 to 100 (0 no effect, 100 complete control)
[16] = 31 g ai/ha, 0 to 100 scale, 0 no effect, 100 complete control

Structure (SMILES): C#CCOC(=O)Oc1cnn(C)c(=O)c1-n1nc(-c2ccc(Cl)cc2)cc1C [Compound 58]
- Plant response rating, Ryegrass, Italian [1, 13]: 100
- Plant response rating, Ryegrass, Italian [1, 14]: 100
- Ryegrass, Italian plant response rating ([1]; 8 g ai/ha, scale 0 to 100): 0
- Ryegrass, Italian plant response rating ([1]; 16 g ai/ha, scale 0 to 100): 100
- Plant response rating, Russian Thistle [2, 13]: 20
- Plant response rating, Russian Thistle [2, 14]: 60
- Russian Thistle plant response rating ([2]; 8 g ai/ha, scale 0 to 100): 0
- Russian Thistle plant response rating ([2]; 16 g ai/ha, scale 0 to 100): 0
- Plant response rating, Galium [3, 13]: 0
- Plant response rating, Galium [3, 14]: 0
- Galium plant response rating ([3]; 8 g ai/ha, scale 0 to 100): 0
- Galium plant response rating ([3]; 16 g ai/ha, scale 0 to 100): 0
- Plant response rating, Cocklebur [4, 15]: 0
- Plant response rating, Cocklebur [4, 13]: 0
- Plant response rating, Cocklebur [4, 14]: 0
- Cocklebur plant response rating ([4]; scale 0 to 100): 0
- Plant response rating, Sunflower [5, 13]: 0
- Plant response rating, Sunflower [5, 14]: 0
- Sunflower plant response rating ([5]; 8 g ai/ha, scale 0 to 100): 0
- Sunflower plant response rating ([5]; 16 g ai/ha, scale 0 to 100): 0
- Plant response rating, Ragweed [6, 13]: 0
- Plant response rating, Ragweed [6, 14]: 0
- Ragweed plant response rating ([6]; 8 g ai/ha, scale 0 to 100): 0
- Ragweed plant response rating ([6]; 16 g ai/ha, scale 0 to 100): 0
- Plant response rating, Bromegrass, Downy [7, 13]: 65
- Plant response rating, Bromegrass, Downy [7, 14]: 85
- Bromegrass, Downy plant response rating ([7]; scale 0 to 100): 0
- Plant response rating, Goosegrass [8, 13]: 95
- Plant response rating, Goosegrass [8, 14]: 100
- Goosegrass plant response rating ([8]; 8 g ai/ha, scale 0 to 100): 70
- Goosegrass plant response rating ([8]; 16 g ai/ha, scale 0 to 100): 85
- Plant response rating, Crabgrass, Large [9, 13]: 90
- Plant response rating, Crabgrass, Large [9, 14]: 100
- Crabgrass, Large plant response rating ([9]; 8 g ai/ha, scale 0 to 100): 50
- Crabgrass, Large plant response rating ([9]; 16 g ai/ha, scale 0 to 100): 75
- Plant response rating, Pigweed [10, 13]: 0
- Plant response rating, Pigweed [10, 14]: 0
- Pigweed plant response rating ([10]; 8 g ai/ha, scale 0 to 100): 0
- Pigweed plant response rating ([10]; 16 g ai/ha, scale 0 to 100): 0
- Plant response rating, Soybean (soybean (Glycine max); [13]): 0
- Plant response rating, Soybean (soybean (Glycine max); [14]): 0
- Soybean plant response rating (soybean (Glycine max); 8 g ai/ha, scale 0 to 100): 0
- Soybean plant response rating (soybean (Glycine max); 16 g ai/ha, scale 0 to 100): 0
- Plant response rating, Surinam Grass [11, 13]: 98
- Plant response rating, Surinam Grass [11, 14]: 100
- Surinam Grass plant response rating ([11]; 8 g ai/ha): 95
- Surinam Grass plant response rating ([11]; 16 g ai/ha): 98
- Plant response rating, Cupgrass, Woolly [12, 13]: 100
- Plant response rating, Cupgrass, Woolly [12, 14]: 100
- Cupgrass, Woolly plant response rating ([12]; 8 g ai/ha, scale 0 to 100): 75
- Cupgrass, Woolly plant response rating ([12]; 16 g ai/ha, scale 0 to 100): 80

Structure (SMILES): Cc1cc(-c2ccc(Cl)cc2)nn1-c1c(OS(=O)(=O)c2ccccc2[N+](=O)[O-])cnn(C)c1=O [Compound 51]
- Plant response rating, Ryegrass, Italian [1, 13]: 100
- Plant response rating, Ryegrass, Italian ([1]; 62 g ai/ha, scale 0 to 100): 100
- Ryegrass, Italian plant response rating ([1]; 8 g ai/ha, scale 0 to 100): 100
- Ryegrass, Italian plant response rating ([1]; 16 g ai/ha, scale 0 to 100): 100
- Plant response rating, Russian Thistle [2, 13]: 0
- Plant response rating, Russian Thistle ([2]; 62 g ai/ha, scale 0 to 100): 0
- Russian Thistle plant response rating ([2]; 8 g ai/ha, scale 0 to 100): 0
- Russian Thistle plant response rating ([2]; 16 g ai/ha, scale 0 to 100): 0
- Plant response rating, Galium [3, 16]: 0
- Plant response rating, Galium ([3]; 62 g ai/ha, scale 0 to 100): 0
- Galium plant response rating ([3]; 8 g ai/ha, scale 0 to 100): 0
- Galium plant response rating ([3]; 16 g ai/ha, scale 0 to 100): 0
- Plant response rating, Cocklebur [4, 15]: 0
- Plant response rating, Cocklebur [4, 16]: 0
- Plant response rating, Cocklebur ([4]; 62 g ai/ha, scale 0 to 100): 0
- Cocklebur plant response rating ([4]; scale 0 to 100): 0
- Plant response rating, Sunflower [5, 13]: 0
- Plant response rating, Sunflower ([5]; 62 g ai/ha, scale 0 to 100): 0
- Sunflower plant response rating ([5]; 8 g ai/ha, scale 0 to 100): 0
- Sunflower plant response rating ([5]; 16 g ai/ha, scale 0 to 100): 0
- Plant response rating, Ragweed [6, 13]: 0
- Plant response rating, Ragweed ([6]; 62 g ai/ha, scale 0 to 100): 0
- Ragweed plant response rating ([6]; 8 g ai/ha, scale 0 to 100): 0
- Ragweed plant response rating ([6]; 16 g ai/ha, scale 0 to 100): 0
- Plant response rating, Bromegrass, Downy [7, 15]: 0
- Plant response rating, Bromegrass, Downy [7, 16]: 45
- Plant response rating, Bromegrass, Downy ([7]; 62 g ai/ha, scale 0 to 100): 85
- Bromegrass, Downy plant response rating ([7]; scale 0 to 100): 0
- Plant response rating, Goosegrass [8, 16]: 75
- Plant response rating, Goosegrass ([8]; 62 g ai/ha, scale 0 to 100): 90
- Goosegrass plant response rating ([8]; 8 g ai/ha, scale 0 to 100): 0
- Goosegrass plant response rating ([8]; 16 g ai/ha, scale 0 to 100): 60
- Plant response rating, Crabgrass, Large [9, 16]: 75
- Plant response rating, Crabgrass, Large ([9]; 62 g ai/ha, scale 0 to 100): 90
- Crabgrass, Large plant response rating ([9]; 8 g ai/ha, scale 0 to 100): 0
- Crabgrass, Large plant response rating ([9]; 16 g ai/ha, scale 0 to 100): 20
- Plant response rating, Pigweed [10, 13]: 0
- Plant response rating, Pigweed ([10]; 62 g ai/ha, scale 0 to 100): 0
- Pigweed plant response rating ([10]; 8 g ai/ha, scale 0 to 100): 0
- Pigweed plant response rating ([10]; 16 g ai/ha, scale 0 to 100): 0
- Plant response rating, Soybean (soybean (Glycine max); [13]): 0
- Plant response rating, Soybean (soybean (Glycine max); 62 g ai/ha, scale 0 to 100): 0
- Soybean plant response rating (soybean (Glycine max); 8 g ai/ha, scale 0 to 100): 0
- Soybean plant response rating (soybean (Glycine max); 16 g ai/ha, scale 0 to 100): 0
- Plant response rating, Surinam Grass [11, 13]: 90
- Plant response rating, Surinam Grass [11, 14]: 100
- Surinam Grass plant response rating ([11]; 8 g ai/ha): 30
- Surinam Grass plant response rating ([11]; 16 g ai/ha): 75
- Plant response rating, Cupgrass, Woolly [12, 16]: 90
- Plant response rating, Cupgrass, Woolly ([12]; 62 g ai/ha, scale 0 to 100): 100
- Cupgrass, Woolly plant response rating ([12]; 8 g ai/ha, scale 0 to 100): 0
- Cupgrass, Woolly plant response rating ([12]; 16 g ai/ha, scale 0 to 100): 80
